According to patent publication US10548883B2, “Benzotriazole-derived α and β-unsaturated amide compound used as TGF-β RI inhibitor” (GENFLEET THERAPEUTICS (SHANGHAI) INC., priority 2016, dated 2020):
“And” between values parts separate entries of the source, which are not always exact repeats. Equal values may be shown once.

Tests used:
TGF-βRI = molecular target: T1, TGF-βRI (Homo sapiens, UniProt P36897); assay: Test of inhibitory activity of TGFβ-RI in vitro; type: biochemical; settings: 10 μM ATP
T1 sequence (P36897 34-503): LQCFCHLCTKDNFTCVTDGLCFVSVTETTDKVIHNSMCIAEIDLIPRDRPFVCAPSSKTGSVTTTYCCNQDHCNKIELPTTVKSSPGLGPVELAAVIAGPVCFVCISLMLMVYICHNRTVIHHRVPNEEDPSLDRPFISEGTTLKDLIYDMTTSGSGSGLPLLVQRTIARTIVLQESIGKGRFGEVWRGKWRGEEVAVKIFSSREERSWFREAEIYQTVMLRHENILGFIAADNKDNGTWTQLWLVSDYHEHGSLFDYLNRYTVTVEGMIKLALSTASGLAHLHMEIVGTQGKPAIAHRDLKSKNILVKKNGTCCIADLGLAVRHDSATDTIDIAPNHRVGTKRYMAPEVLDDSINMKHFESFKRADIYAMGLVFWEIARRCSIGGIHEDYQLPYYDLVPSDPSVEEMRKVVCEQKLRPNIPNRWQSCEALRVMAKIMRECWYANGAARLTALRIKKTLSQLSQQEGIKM
Experimental: i) Test compound: the IC50 was determined by diluting into 10 gradient points with each gradient by three-fold dilution and with a starting concentration of 5 μM.
ii) The IC50 of reference compound LDN193189 was determined by diluting into 10 gradient points with each gradient by three-fold dilution and with a starting concentration of 20 μM.
iii) The reaction system contains 10 μM ATP.
iv) Calculate the IC50 value by curve fitting when the percentage of enzyme activity (compared to the solvent group) is below 65% at the highest concentration of the sample.

[1] = test system: NIH/3T3 mouse embryonic cells; assay: Test of proliferation inhibition on NIH/3T3 mouse embryonic cells (CellTiter-Glo, with TGF-β1); type: cell-based; settings: NIH3T3, 0.2 ng/mL TGF-β1, 72 h
Experimental: Promega's Luminescent Cell Viability Assay (CellTiter-Glo® method, i.e. ATP fluorescence activity detection and analysis), the compound is added to the cell culture plate for incubation. A substrate buffer for detecting intracellular ATP content was added on the day of detection. Slightly shake and centrifuge at 1000 rpm for 1 min. Tested after standing for 10 min. The assay plate was analyzed using Envision multifunctional enzyme marker of PerkinElmer, Inc., and the analysis mode was fluorescence detection, and the data was expressed by the reading of chemiluminescence signal at 400-700 nm.
i) When the cell growth coverage is about 70%, the cell layer was washed with 10 mL of Duchenne phosphate buffer (D-PBS) which is calcium- and magnesium-free, then 2 mL of 0.25% trypsin-EDTA digest was added. The cell culture flask was placed in a CO2 carbon dioxide incubator at 37° C. and incubated for 3-5 min, then 8 mL of complete culture medium containing 2% FBS DMEM cells was added, and the cells were puffed evenly into single cell and counted by Vi-cell cytometer, and NIH/3T3 cell suspension was diluted to 0.375×10^5/mL cells.
ii) 50 μL of 2% DMEM-containing medium was added around the 384-well cell culture plate, then 40 μL of cell suspension was added to the remaining wells to 1500 cells per well. The distribution of the cells was observed under a microscope, and the cell plates were placed in a cell culture incubator with 5% CO2 at 37° C.
iii) Dilution of the compound refers to the preparation of the compound.
iv) A mixture of 2% fetal bovine serum containing 1 ng/mL TGF-β1 in DMEM medium was added manually to the compound intermediate plate, 20 μL per well.
v) The compound intermediate plate was shook slightly for 10 sec at 1000 rpm/min and centrifuge for 10 sec.
vi) 10 uL of the mixed liquid from steps 4 and 5 of each well was transferred to the inoculated cell plate to a final volume of 50 μL by using a Bravo liquid workstation, and the final concentration of TGF-β1 was diluted to 0.2 ng/mL, and centrifuged for 10 sec at 1000 rpm/min. The plates were placed in an incubator with 5% carbon dioxide at 37° C., 5% carbon dioxide for 72 h. The final concentration of the compound is: (unit: μM)
vii) The cell plate containing the compound was cultured in a cell incubator with 5% CO2 at 37° C. for 3 days.
viii) After that, 25 μL of ATP fluorescence activity detection solution was added to each well of the cell plate, then shook gently for about 1 min and centrifuged at 500 rpm/min for about 30 sec, and the reading was performed in an Envision instrument after standing at room temperature for 10 min in the dark.

[2] = test system: mouse breast cancer 4T1 cells; assay: Tumor cell metastasis inhibition in BALB/c mouse orthotopic transplantation model of mouse breast cancer 4T1 cells; type: in vivo; settings: 75 mg/kg PO once a day × 32
Experimental: Fluorescently labeled mouse breast cancer 4T1-Luc cells were expanded in vitro. Before the cells were collected, the mice were anesthetized with intraperitoneal injection of sodium pentobarbital. After anesthetized mice were fixed, the abdominal skin was disinfected with 70% alcohol. 100 uL of phosphate buffer (containing 0.5×10^6 4T1-luc2 cells) was inoculated into the left side of the fourth pair of abdominal mammary fat pads in mice, and the incision was sutured to disinfect the skin. The animals are kept warm with a warm blanket, observed until they wake up and put back in their cages. 0.1 mg/kg buprenorphine for pain relief was subcutaneously injected 30 min before surgery and 6 hours after surgery.
On the third day after modeling, the animals were subjected to bioluminescence detection by infrared data imaging, randomly grouped according to the fluorescence values, and administered according to the following experimental protocol, see Table 5.
To observe the inhibitory effect of embodiment 1 on tumor growth and metastasis, the experimental endpoint was designed to be 30-35 days after administration, with reference to historical data of the model. At the end of the experiment, the in situ tumor and various organ tissues were dissected, the tumor was weighed, and the fluorescence intensity of each organ was detected by IVIS fluorescence. Growth inhibition of orthotopic tumors can be compared by the weight of the in situ tumor in the experimental endpoint, and the inhibition curve is generated from the tumor volume measurement data twice a week during the experiment. The inhibition of tumor metastasis was determined by the presence or absence of fluorescence detection of each organ and the analysis of relative fluorescence intensity.
At the end of the experiment, the tumor weight will be detected and the relative tumor growth rate T/C (%) will be calculated; the tumor volume is calculated as: V=0.5a×b^2, and a and b represent the long and short diameters of the tumor, respectively. At the same time, the lung, liver, spleen, kidney, intestine and left upper limb were stripped, and fluorescence was detected to determine whether there was metastasis and metastasis intensity and ratio.
The antitumor effect of the compound was evaluated by the tumor growth inhibition rate TGI (%) or the relative tumor growth rate T/C (%).
Calculation of TGI (%): TGI (%)=[(1−mean tumor volume at the end of administration of a treatment group−mean tumor volume at the start of administration of the treatment group))/(mean tumor volume at the end of treatment of the solvent control group−mean tumor volume at the start of administration of the solvent control group)]×100%.
Relative tumor growth rate T/C (%) calculation: T/C(%)=Tt(treatment group)/Ct(control group)×100%, Tt is the average tumor volume at a certain measurement, and Ct takes the same day data.
The experimental results were statistically analyzed using one-way ANOVA. If there is a significant difference in F values, multiple comparisons should be made after ANOVA analysis. All data in this experiment were analyzed using SPSS 17.0. A significant difference was considered at p<0.05.
At the end of the experiment, each organ tissue was peeled off, and fluorescence imaging and fluorescence intensity value recording were measured by IVIS for 40 sec exposure within 8 min. The fluorescence imaging results of the tested tissues of the 10 animals excised by the maximum and minimum values are shown in Table 6.
According to the experimental end point, the fluorescence intensity of each group of organs was normalized by the control group, and the relative fluorescence intensity ratio of each group of organs was obtained. The ratio reflects the level of metastatic intensity on the corresponding organs.

CT-26 cells = assay: Tumor cell proliferation inhibition in BALB/c mouse model of subcutaneously transplanted CT-26 cells, alone or combined with BioXcell-mPD-L1; type: in vivo; settings: for Tumor volume: average ± SEM, small molecules 75 mg/kg PO twice a day, BioXcell-mPD-L1 10 mg/kg IP twice a week
Experimental: The following table lists the animal grouping and dosing regimen of embodiment 1, the positive reference compound LY2157299 and the BioXcell PD-L1 monoclonal antibody (BioXcell-mPD-L1), which are used alone or in combination in vivo.
Mouse colon cancer CT-26 cells were cultured in vitro in a single layer, and culture conditions is RPMI1640 medium (Medium No. 1640, Roswell Parker Memorial Institute) supplemented with 10% fetal bovine serum at 37° C., 5% CO2. Passage was routinely digested with trypsin-EDTA twice a week. When the cell saturation is 80%-90%, the cells are collected, counted, and inoculated.
0.1 mL (1×10^5) CT-26 cells were subcutaneously inoculated into the right back of each BALB/c mouse. The mice were administered in groups according to the body weight of the mice on the second day after cell inoculation.
The experimental indicator is to investigate whether tumor growth is inhibited, delayed or cured. Tumor diameters were measured with Vernier calipers twice a week. The tumor volume is calculated as: V=0.5a×b^2, and a and b represent the long and short diameters of the tumor, respectively.
The antitumor effect of the compound was evaluated by TGI (%) or tumor proliferation rate T/C (%). TGI (%) reflects the tumor growth inhibition rate. Calculation of TGI (%): TGI (%)=[(1-(mean tumor volume at the end of administration of a treatment group—mean tumor volume at the start of administration of the treatment group))/(mean tumor volume at the end of treatment of the solvent control group)—mean tumor volume at the start of treatment of the solvent control group)]×100%.
Tumor proliferation rate T/C (%): The formula is as follows: T/C %=T/C×100% (T: treatment group; C: negative control group).
Tumor weights were measured after the end of the experiment and the percentage of T/Cweight was calculated. Tweight and Cweight represent the tumor weights of the drug-administered group and the vehicle control group, respectively.
Statistical analysis, including mean and standard error (SEM) of tumor volume at each time point for each group (see Table 4 for specific data). […] T-test was used for comparison between the two groups, and one-way analysis of variance was used for comparison between three or more groups. If there was a significant difference in F values, the Gass-Howell method was used to test. If there is no significant difference in F values, the Dunnet (2-sided) method is used for analysis. All data analysis was performed with SPSS 17.0. A significant difference was considered at p<0.05.

liver cancer = settings: phase 2, patients with liver cancer; cited from earlier work
[3] = animals with metastasis/animals in group
[4] = average organ fluorescence relative to control group

Compound: CCNC(=O)/C=C/c1c(-c2c(-c3cccc(C)n3)nn3c2CCC3)ccc2ncnn12 [Embodiment 3]
- IC50 (TGF-βRI): 0.05 to 0.5 µM
- IC50 [1]: 2 to 5 µM

Compound: Cc1nc(-c2nn3c(c2-c2ccc4ncnn4c2/C=C/C(N)=O)CCC3)ccc1Cl [Embodiment 12]
- IC50 (TGF-βRI): > 0.5 µM

Compound: Cc1cccc(-c2nn(Cc3cccc(C(F)F)c3)cc2-c2ccc3ncnn3c2/C=C/C(N)=O)n1 [Embodiment 9]
- IC50 (TGF-βRI): 0.05 to 0.5 µM
- IC50 [1]: 0.5 to 2 µM

Compound: Cc1cc(C)nc(-c2nn3c(c2-c2ccc4ncnn4c2/C=C/C(N)=O)CCC3)c1 [Embodiment 11]
- IC50 (TGF-βRI): > 0.5 µM

Compound: Cc1cccc(-c2nn(C(C)C)cc2-c2ccc3ncnn3c2/C=C/C(N)=O)n1 [Embodiment 8]
- IC50 (TGF-βRI): 0.05 to 0.5 µM
- IC50 [1]: 2 to 5 µM

Compound: Cc1cccc(-c2nn3c(c2-c2ccc4ncnn4c2/C=C/C(=O)NC2CC2)CCC3)n1 [Embodiment 4]
- IC50 (TGF-βRI): 0.05 to 0.5 µM
- IC50 [1]: 2 to 5 µM

Compound: CCc1cccc(-c2nn3c(c2-c2ccc4ncnn4c2/C=C/C(N)=O)CCC3)n1 [Embodiment 10]
- IC50 (TGF-βRI): 0.05 to 0.5 µM
- IC50 [1]: 2 to 5 µM

Compound: Cc1cccc(-c2nn3c(c2-c2ccnc4ccc(C(N)=O)cc24)CCC3)n1 [LY2157299, Galunisertib, reference compound]
- Metastasis rate, intestine [2, 3]: 60%
- Metastasis rate, kidney [2, 3]: 30%
- Metastasis rate, liver [2, 3]: 80%
- Metastasis rate, lung [2, 3]: 100%
- Metastasis rate, spleen [2, 3]: 10%
- Metastasis rate, upper limb [2, 3]: 70%
- Metastasis level, intestine [2, 4]: 41%
- Metastasis level, kidney [2, 4]: 121%
- Metastasis level, liver [2, 4]: 31%
- Metastasis level, lung [2, 4]: 20%
- Metastasis level, spleen [2, 4]: 4%
- Metastasis level, upper limb [2, 4]: 54%
- Tumor volume (CT-26 cells; day 10 of administration): 98 ± 14 mm^3
- Tumor volume (CT-26 cells; day 13 of administration): 446 ± 104 mm^3
- Tumor volume (CT-26 cells; day 15 of administration): 840 ± 177 mm^3
- Tumor volume (CT-26 cells; day 17 of administration): 1256 ± 257 mm^3
- Tumor volume (CT-26 cells; day 20 of administration): 2186 mm^3 and 2186 ± 435 mm^3
- Tumor proliferation rate T/C (CT-26 cells; twenty days after start of administration, 75 mg/kg PO and/or 10 mg/kg IP): 85%
- Antitumor effect compared with the solvent control group (CT-26 cells; twenty days after start of administration, 75 mg/kg and/or 10 mg/kg): no significant antitumor effect
- Patients with a decrease in serum alpha-fetoprotein (AFP) level of more than 20% (liver cancer): about 23%

Compound: CNC(=O)/C=C/c1c(-c2c(-c3cccc(C)n3)nn3c2CCC3)ccc2ncnn12 [Embodiment 2]
- IC50 (TGF-βRI): 0.05 to 0.5 µM
- IC50 [1]: 2 to 5 µM

Compound: Cc1cccc(-c2nn(C3CCCC3)cc2-c2ccc3ncnn3c2/C=C/C(N)=O)n1 [Embodiment 7]
- IC50 (TGF-βRI): 0.05 to 0.5 µM

Compound: Cc1cccc(-c2nn(Cc3cccc(C#N)c3)cc2-c2ccc3ncnn3c2/C=C/C(N)=O)n1 [Embodiment 6]
- IC50 (TGF-βRI): 0.05 to 0.5 µM
- IC50 [1]: 0.5 to 2 µM

Compound: Cc1cccc(-c2nn3c(c2-c2ccc4ncnn4c2/C=C/C(=O)NCCO)CCC3)n1 [Embodiment 5]
- IC50 (TGF-βRI): 0.05 to 0.5 µM
- IC50 [1]: > 5 µM
